Data as given in patent publication US20230284627A1, “ANTIMICROBIAL COMPOSITIONS AND METHODS OF USE AND FOR MAKING SAME” (MIG USA, LLC, priority 2020, published 2023).

Test system: Escherichia coli ATCC-25922, Klebsiella pneumonia ATCC-4352, Canadida albicans ATCC-10231, Pseudomonas aeruginosa ATCC-9027, Staphylococcus aureus ATCC-6538
Assay: Lawn-spray assay of AM635 disinfectant spray in SDS (Example 5)
Assay type: cell-based
Settings: portions of the untreated area were also clear of bacterial growth
Protocol: The efficacy of 0.5-2% SDS solutions (in DiH2O)+0.1-10% Silver 1-Methyl imidazole were tested by performing a lawn-spray assay. The Silver 1-Methylimidazole Complex 635 (AM635) disinfectant sprays in SDS were prepared as described in Example 4. Briefly, a lawn of bacteria/yeast from a newly grown broth culture were inoculated onto their preferred agar media by dipping a swab into each broth, fully wetting the swab end, then swiping the swab back-and-forth from the top to the bottom of the plate, then turning the plate for a ¼ turn and re-streaking from top to bottom again. This technique ensures for total coverage of the inoculating bacteria/yeast across the face of the agar media. The dish was then opened and a paper towel placed over the top of the plate to cover only half of the surface while not touching the agar surface, so that the other half is exposed to the air. This exposed half was then treated with 2-pumps from a spray bottle containing the AM635 in SDS composition, ensuring that the exposed half of the plate was saturated by the test product. Each plate was treated using the same 2-pump criteria. All plates were then incubated “agar-down” overnight at 37° C. to allow the bacteria to fully grow (at 30° C. for yeast). […]

**Q.** How did the “effect on untreated area of lawn plate” value turn out when CCCCCCCCCCCCOS(=O)(=O)[O-].[Na+] [SDS, Sodium Dodecyl Sulfate] was run?
**A.** hypermigration effect
